# Assay results: ChEMBL document CHEMBL3885881, “DrugMatrix”
# Organism: Rattus norvegicus
# Assay: DrugMatrix - Regimen: Daily Repeat
# Assay type: toxicity, organism-based, Sprague-Dawley
# Parameters: regimen Daily Repeat, gender Male, age 6-8 weeks
# Conditions: in vivo, po, route oral GAVAGE, vehicle .5 % CMC
# [1] = 10 mg/kg, […], tissue Blood, dose level Low, time 14 day
# [2] = 10 mg/kg, […], tissue Plasma, dose level Low, time 14 day
# [3] = 100 mg/kg, 72 h, tissue Blood, dose level High, time 3 day
# [4] = 100 mg/kg, 72 h, tissue Plasma, dose level High, time 3 day
smiles,measurement,setting,value
CN(C)CCN(Cc1cccs1)c1ccccn1,ABSOLUTE BASOPHIL,[1],83.3 cells/µL
same,ABSOLUTE EOSINOPHIL,[1],66.7 cells/µL
same,ABSOLUTE LYMPHOCYTE,[1],10000 cells/µL
same,ABSOLUTE MONOCYTE,[1],240 cells/µL
same,BASOPHIL,[1],0.53%
same,EOSINOPHIL,[1],0.52%
same,ERYTHROCYTE COUNT,[1],7.47 x10E6/uL
same,HEMATOCRIT,[1],47.12%
same,HEMOGLOBIN,[1],14.82 G/DL
same,LEUKOCYTE COUNT,[1],12.98 x10E3/uL
same,LYMPHOCYTE,[1],76.93%
same,MEAN CORPUSCULAR HEMOGLOBIN,[1],19.85 pg
same,MEAN CORPUSCULAR HEMOGLOBIN CONCENTRATION,[1],31.43 G/DL
same,MEAN CORPUSCULAR VOLUME,[1],63.1 fL
same,MONOCYTE,[1],1.83%
same,NEUTROPHIL,[1],19.2%
same,PLATELET COUNT,[1],1264.5 x10E3/uL
same,ALANINE AMINOTRANSFERASE,[2],47.67 u/L
same,ALBUMIN,[2],3.87 G/DL
same,ALKALINE PHOSPHATASE,[2],477 u/L
same,ASPARTATE AMINOTRANSFERASE,[2],81.33 u/L
same,BLOOD UREA NITROGEN,[2],14.83 mg/dL
same,CARBON DIOXIDE,[2],38.33 mmol/L
same,CHLORIDE,[2],105.17 MEQ/L
same,CHOLESTEROL,[2],68.67 mg/dL
same,CREATINE PHOSPHOKINASE,[2],223.17 u/L
same,CREATININE,[2],0.68 mg/dL
same,GLUCOSE,[2],155.83 mg/dL
same,LACTATE DEHYDROGENASE,[2],95.83 u/L
same,LIPASE,[2],18.67 u/L
same,PHOSPHORUS,[2],10.72 mg/dL
same,POTASSIUM,[2],6.3 MEQ/L
same,SODIUM,[2],151.83 MEQ/L
same,TOTAL BILIRUBIN,[2],0.27 mg/dL
same,TOTAL PROTEIN,[2],6.77 G/DL
same,URIC ACID,[2],1.22 mg/dL
same,ABSOLUTE BASOPHIL,[3],0 CELLS/uL
same,ABSOLUTE EOSINOPHIL,[3],62.67 CELLS/uL
same,ABSOLUTE LYMPHOCYTE,[3],11170 CELLS/uL
same,ABSOLUTE MONOCYTE,[3],125.33 CELLS/uL
same,ABSOLUTE SEGMENTED NEUTROPHIL,[3],1608.67 CELLS/uL
same,BASOPHIL,[3],0%
same,EOSINOPHIL,[3],0.33%
same,ERYTHROCYTE COUNT,[3],5.22 x10E6/uL
same,HEMATOCRIT,[3],32.67%
same,HEMOGLOBIN,[3],12.17 G/DL
same,LEUKOCYTE COUNT,[3],12.97 x10E3/uL
same,LYMPHOCYTE,[3],81.67%
same,MEAN CORPUSCULAR HEMOGLOBIN,[3],23.37 pg
same,MEAN CORPUSCULAR HEMOGLOBIN CONCENTRATION,[3],37.27 G/DL
same,MEAN CORPUSCULAR VOLUME,[3],62.6 fL
same,MONOCYTE,[3],0.67%
same,NEUTROPHIL,[3],17.33%
same,NUCLEATED RED BLOOD CELLS,[3],0 /100WBC
same,PLATELET COUNT,[3],1093.67 x10E3/uL
same,ALANINE AMINOTRANSFERASE,[4],71.33 u/L
same,ALBUMIN,[4],3.77 G/DL
same,ALKALINE PHOSPHATASE,[4],555.67 u/L
same,ASPARTATE AMINOTRANSFERASE,[4],110.67 u/L
same,BLOOD UREA NITROGEN,[4],15.67 mg/dL
same,CARBON DIOXIDE,[4],32.33 mmol/L
same,CHLORIDE,[4],99.67 MEQ/L
same,CHOLESTEROL,[4],134.33 mg/dL
same,CREATINE PHOSPHOKINASE,[4],382 u/L
same,CREATININE,[4],0.22 mg/dL
same,GLUCOSE,[4],140 mg/dL
same,LACTATE DEHYDROGENASE,[4],129.67 u/L
same,LIPASE,[4],11.33 u/L
same,PHOSPHORUS,[4],12.07 mg/dL
same,POTASSIUM,[4],5.88 MEQ/L
same,SODIUM,[4],143.37 MEQ/L
same,TOTAL BILIRUBIN,[4],0.47 mg/dL
